Results published in patent publication US12435044B2, “Pyridazinone herbicides and pyridazinone intermediates used to prepare a herbicide” (FMC Corporation, priority 2018, dated 2025).

Tests used:
Assay type in all cases: in vivo
[1] = tested on: ragweed (common ragweed, Ambrosia elatior); experiment: Test A pre-/postemergence greenhouse test
Source text: (§1) Seeds of plant species selected from barnyardgrass (Echinochloa crus-galli), kochia (Kochia scoparia), ragweed (common ragweed, Ambrosia elatior), ryegrass, Italian (Lolium multiflorum), foxtail, giant (Setaria faberii), foxtail, green (Setaria viridis) and pigweed (Amaranthus retroflexus) were planted into a blend of loam soil and sand and treated preemergence with a directed soil spray using test chemicals formulated in a non-phytotoxic solvent mixture which included a surfactant.
(§2) At the same time, plants selected from these weed species and also wheat (Triticum aestivum), corn (Zea mays), blackgrass (Alopecurus myosuroides) and galium (catchweed bedstraw, Galium aparine) were planted in pots containing the same blend of loam soil and sand and treated with postemergence applications of test chemicals formulated in the same manner. Plants ranged in height from 2 to 10 cm and were in the one- to two-leaf stage for the postemergence treatment. Treated plants and untreated controls were maintained in a greenhouse for approximately 10 d, after which time all treated plants were compared to untreated controls and visually evaluated for injury. Plant response ratings, summarized in Table A, are based on a 0 to 100 scale where 0 is no effect and 100 is complete control. A dash (-) response means no test result.

[2] = tested on: ryegrass, Italian (Lolium multiflorum); experiment: Test A pre-/postemergence greenhouse test
Source text: as §1, §2

[3] = tested on: pigweed (Amaranthus retroflexus); experiment: Test A pre-/postemergence greenhouse test
Source text: as §1, §2

kochia (Kochia scoparia) [4] = experiment: Test A pre-/postemergence greenhouse test
Source text: as §1, §2

[5] = tested on: barnyardgrass (Echinochloa crus-galli); experiment: Test A pre-/postemergence greenhouse test
Source text: as §1, §2

oat, wild (Avena fatua) = experiment: Test D pre-/postemergence controlled growth environment test
Source text: (§3) Seeds of plant species selected from blackgrass (Alopecurus myosuroides), galium (catchweed bedstraw, Galium aparine), kochia (Kochia scoparia), oilseed rape (Brassica napus), barley, spring (Hordeum vulgare), wheat, spring (Triticum aestivum), oat, wild (Avena fatua), barley, winter (Hordeum vulgare) and wheat, winter (Triticum aestivum) were planted into a silt loam soil and treated preemergence with test chemicals formulated in a non-phytotoxic solvent mixture which included a surfactant.
(§4) At the same time, plants selected from these crop and weed species and also bluegrass (annual bluegrass, Poa annua), canarygrass (littleseed canarygrass, Phalaris minor), chickweed (common chickweed, Stellaria media), bromegrass, downy (downy bromegrass, Bromus tectorum), field poppy (Papaver rhoeas), field violet (Viola arvensis), foxtail, green (Setaria viridis), deadnettle (henbit deadnettle, Lamium amplexicaule), ryegrass, Italian (Lolium multiflorum), lambsquarters (Chenopodium album), pigweed (Amaranthus retroflexus), chamomile (scentless chamomile, Matricaria inodora), Russian thistle (Salsola kali), speedwell (bird's-eye speedwell, Veronica persica), buckwheat, wild (Polygonum convolvulus), mustard, wild (Sinapis arvensis), radish, wild (Raphanus raphanistrum), windgrass (Apera spica-venti), geranium, cutleaf (Geranium dissectum) and Canada thistle (Cirsium arvense) were planted in pots containing Redi-Earth® planting medium (Scotts Company, 14111 Scottslawn Road, Marysville, Ohio 43041) comprising spaghnum peat moss, vermiculite, wetting agent and starter nutrients and treated with postemergence applications of the test chemicals formulated in the same manner. Plants ranged in height from 2 to 18 cm (1- to 4-leaf stage). Treated plants and controls were maintained in a controlled growth environment for 14 to 21 d after which time all species were compared to controls and visually evaluated. Plant response ratings, summarized in Table D, are based on a scale of 0 to 100 where 0 is no effect and 100 is complete control. A dash (-) response means no test result.

[6] = tested on: barley, winter (Hordeum vulgare); experiment: as above
Source text: as §3, §4

[7] = tested on: wheat, spring (Triticum aestivum); experiment: as above
Source text: as §3, §4

[8] = tested on: blackgrass (Alopecurus myosuroides); experiment: as above
Source text: as §3, §4

[9] = tested on: galium (catchweed bedstraw, Galium aparine); experiment: as above
Source text: as §3, §4

kochia (Kochia scoparia) [10] = experiment: as above
Source text: as §3, §4

[11] = tested on: barley, spring (Hordeum vulgare); experiment: as above
Source text: as §3, §4

[12] = tested on: oilseed rape (Brassica napus); experiment: as above
Source text: as §3, §4

[13] = tested on: wheat, winter (Triticum aestivum); experiment: as above
Source text: as §3, §4

With `Cc1cc(Cl)c2ccccc2c1-c1c(O)c(Cl)nn(C)c1=O` [Cpd. No. 65] the “Plant response rating (0 to 100 scale)” value ([1]; Postemergence, 31 g ai/ha) was 100, the “Plant response rating (0 to 100 scale)” value ([1]; Postemergence, 125 g ai/ha) was 100 and the “Plant response rating (0 to 100 scale)” value ([1]; Preemergence, 31 g ai/ha) was 100. The “Plant response rating (0 to 100 scale)” value ([1]; Preemergence, 125 g ai/ha) was 100, the “Plant response rating (0 to 100 scale)” value ([2]; Postemergence, 31 g ai/ha) was 100 and the “Plant response rating (0 to 100 scale)” value ([2]; Postemergence, 125 g ai/ha) was 100. The “Plant response rating (0 to 100 scale)” value ([2]; Preemergence, 31 g ai/ha) was 100, the “Plant response rating (0 to 100 scale)” value ([2]; Preemergence, 125 g ai/ha) was 100 and the “Plant response rating (0 to 100 scale)” value ([3]; Postemergence, 31 g ai/ha) was 100. The “Plant response rating (0 to 100 scale)” value ([3]; Postemergence, 125 g ai/ha) was 100, the “Plant response rating (0 to 100 scale)” value ([3]; Preemergence, 31 g ai/ha) was 100 and the “Plant response rating (0 to 100 scale)” value ([3]; Preemergence, 125 g ai/ha) was 100. For the same molecule, the “Plant response rating (0 to 100 scale)” value (kochia (Kochia scoparia) [4]; Postemergence, 31 g ai/ha) was 80, the “Plant response rating (0 to 100 scale)” value (kochia (Kochia scoparia) [4]; Postemergence, 125 g ai/ha) was 100 and the “Plant response rating (0 to 100 scale)” value (kochia (Kochia scoparia) [4]; Preemergence, 31 g ai/ha) was 0. For the same molecule, the “Plant response rating (0 to 100 scale)” value (kochia (Kochia scoparia) [4]; Preemergence, 125 g ai/ha) was 80, the “Plant response rating (0 to 100 scale)” value ([5]; Postemergence, 31 g ai/ha) was 100 and the “Plant response rating (0 to 100 scale)” value ([5]; Postemergence, 125 g ai/ha) was 100. For the same molecule, the “Plant response rating (0 to 100 scale)” value ([5]; Preemergence, 31 g ai/ha) was 100, the “Plant response rating (0 to 100 scale)” value ([5]; Preemergence, 125 g ai/ha) was 100 and the “Plant response rating, Oat, Wild” value (oat, wild (Avena fatua); Postemergence, 16 g ai/ha) was 92. For the same molecule, the “Plant response rating, Oat, Wild” value (oat, wild (Avena fatua); Postemergence, 31 g ai/ha) was 92, the “Plant response rating, Oat, Wild” value (oat, wild (Avena fatua); Postemergence, 62 g ai/ha) was 96 and the “Plant response rating, Oat, Wild” value (oat, wild (Avena fatua); Postemergence, 125 g ai/ha) was 99. The “Plant response rating, Oat, Wild” value (oat, wild (Avena fatua); Preemergence, 16 g ai/ha) was 28, the “Plant response rating, Oat, Wild” value (oat, wild (Avena fatua); Preemergence, 31 g ai/ha) was 80 and the “Plant response rating, Oat, Wild” value (oat, wild (Avena fatua); Preemergence, 62 g ai/ha) was 83. For the same molecule, the “Plant response rating, Oat, Wild” value (oat, wild (Avena fatua); Preemergence, 125 g ai/ha) was 97, the “Plant response rating, Barley, Winter” value ([6]; Postemergence, 16 g ai/ha) was 60 and the “Plant response rating, Barley, Winter” value ([6]; Postemergence, 31 g ai/ha) was 72. For the same molecule, the “Plant response rating, Barley, Winter” value ([6]; Postemergence, 62 g ai/ha) was 83, the “Plant response rating, Barley, Winter” value ([6]; Postemergence, 125 g ai/ha) was 90 and the “Plant response rating, Barley, Winter” value ([6]; Preemergence, 16 g ai/ha) was 0. For the same molecule, the “Plant response rating, Barley, Winter” value ([6]; Preemergence, 31 g ai/ha) was 3, the “Plant response rating, Barley, Winter” value ([6]; Preemergence, 62 g ai/ha) was 7 and the “Plant response rating, Barley, Winter” value ([6]; Preemergence, 125 g ai/ha) was 23. For the same molecule, the “Plant response rating, Wheat, Spring” value ([7]; Postemergence, 16 g ai/ha) was 90, the “Plant response rating, Wheat, Spring” value ([7]; Postemergence, 31 g ai/ha) was 93 and the “Plant response rating, Wheat, Spring” value ([7]; Postemergence, 62 g ai/ha) was 93. The “Plant response rating, Wheat, Spring” value ([7]; Postemergence, 125 g ai/ha) was 93, the “Plant response rating, Wheat, Spring” value ([7]; Preemergence, 16 g ai/ha) was 63 and the “Plant response rating, Wheat, Spring” value ([7]; Preemergence, 31 g ai/ha) was 78. For the same molecule, the “Plant response rating, Wheat, Spring” value ([7]; Preemergence, 62 g ai/ha) was 90, the “Plant response rating, Wheat, Spring” value ([7]; Preemergence, 125 g ai/ha) was 100 and the “Plant response rating, Blackgrass” value ([8]; Postemergence, 16 g ai/ha) was 83. The “Plant response rating, Blackgrass” value ([8]; Postemergence, 31 g ai/ha) was 90, the “Plant response rating, Blackgrass” value ([8]; Postemergence, 62 g ai/ha) was 93 and the “Plant response rating, Blackgrass” value ([8]; Postemergence, 125 g ai/ha) was 95. The “Plant response rating, Blackgrass” value ([8]; Preemergence, 16 g ai/ha) was 13, the “Plant response rating, Blackgrass” value ([8]; Preemergence, 31 g ai/ha) was 23 and the “Plant response rating, Blackgrass” value ([8]; Preemergence, 62 g ai/ha) was 63. For the same molecule, the “Plant response rating, Blackgrass” value ([8]; Preemergence, 125 g ai/ha) was 90, the “Plant response rating, Galium” value ([9]; Postemergence, 16 g ai/ha) was 85 and the “Plant response rating, Galium” value ([9]; Postemergence, 31 g ai/ha) was 97. The “Plant response rating, Galium” value ([9]; Postemergence, 62 g ai/ha) was 97, the “Plant response rating, Galium” value ([9]; Postemergence, 125 g ai/ha) was 98 and the “Plant response rating, Galium” value ([9]; Preemergence, 16 g ai/ha) was 13. The “Plant response rating, Galium” value ([9]; Preemergence, 31 g ai/ha) was 82, the “Plant response rating, Galium” value ([9]; Preemergence, 62 g ai/ha) was 98 and the “Plant response rating, Galium” value ([9]; Preemergence, 125 g ai/ha) was 100. For the same molecule, the “Plant response rating, Kochia” value (kochia (Kochia scoparia) [10]; Postemergence, 16 g ai/ha) was 35, the “Plant response rating, Kochia” value (kochia (Kochia scoparia) [10]; Postemergence, 31 g ai/ha) was 50 and the “Plant response rating, Kochia” value (kochia (Kochia scoparia) [10]; Postemergence, 62 g ai/ha) was 75. For the same molecule, the “Plant response rating, Kochia” value (kochia (Kochia scoparia) [10]; Postemergence, 125 g ai/ha) was 90, the “Plant response rating, Kochia” value (kochia (Kochia scoparia) [10]; Preemergence, 16 g ai/ha) was 12 and the “Plant response rating, Kochia” value (kochia (Kochia scoparia) [10]; Preemergence, 31 g ai/ha) was 22. For the same molecule, the “Plant response rating, Kochia” value (kochia (Kochia scoparia) [10]; Preemergence, 62 g ai/ha) was 72, the “Plant response rating, Kochia” value (kochia (Kochia scoparia) [10]; Preemergence, 125 g ai/ha) was 93 and the “Plant response rating, Barley, Spring” value ([11]; Postemergence, 16 g ai/ha) was 57. The “Plant response rating, Barley, Spring” value ([11]; Postemergence, 31 g ai/ha) was 78, the “Plant response rating, Barley, Spring” value ([11]; Postemergence, 62 g ai/ha) was 88 and the “Plant response rating, Barley, Spring” value ([11]; Postemergence, 125 g ai/ha) was 93. The “Plant response rating, Barley, Spring” value ([11]; Preemergence, 16 g ai/ha) was 0, the “Plant response rating, Barley, Spring” value ([11]; Preemergence, 31 g ai/ha) was 3 and the “Plant response rating, Barley, Spring” value ([11]; Preemergence, 62 g ai/ha) was 5. For the same molecule, the “Plant response rating, Barley, Spring” value ([11]; Preemergence, 125 g ai/ha) was 73, the “Plant response rating, Oilseed Rape” value ([12]; Postemergence, 16 g ai/ha) was 85 and the “Plant response rating, Oilseed Rape” value ([12]; Postemergence, 31 g ai/ha) was 87. For the same molecule, the “Plant response rating, Oilseed Rape” value ([12]; Postemergence, 62 g ai/ha) was 90, the “Plant response rating, Oilseed Rape” value ([12]; Postemergence, 125 g ai/ha) was 100 and the “Plant response rating, Oilseed Rape” value ([12]; Preemergence, 16 g ai/ha) was 0. For the same molecule, the “Plant response rating, Oilseed Rape” value ([12]; Preemergence, 31 g ai/ha) was 18, the “Plant response rating, Oilseed Rape” value ([12]; Preemergence, 62 g ai/ha) was 85 and the “Plant response rating, Oilseed Rape” value ([12]; Preemergence, 125 g ai/ha) was 100. For the same molecule, the “Plant response rating, Wheat, Winter” value ([13]; Postemergence, 16 g ai/ha) was 85, the “Plant response rating, Wheat, Winter” value ([13]; Postemergence, 31 g ai/ha) was 90 and the “Plant response rating, Wheat, Winter” value ([13]; Postemergence, 62 g ai/ha) was 90. The “Plant response rating, Wheat, Winter” value ([13]; Postemergence, 125 g ai/ha) was 92, the “Plant response rating, Wheat, Winter” value ([13]; Preemergence, 16 g ai/ha) was 23 and the “Plant response rating, Wheat, Winter” value ([13]; Preemergence, 31 g ai/ha) was 67. For the same molecule, the “Plant response rating, Wheat, Winter” value ([13]; Preemergence, 62 g ai/ha) was 80 and the “Plant response rating, Wheat, Winter” value ([13]; Preemergence, 125 g ai/ha) was 93.
